Data on eight molecules can be found in ChEMBL document CHEMBL1134146, “Development of specific CXCR4 inhibitors possessing high selectivity indexes as well as complete stability in serum based on an anti-HIV peptide T140” (Bioorg Med Chem Lett, 2001).

For orientation: CC50 means the concentration at which the toxic effect on the cells reaches its halfway point. Read a low CC50 as greater toxicity to the cells.

For one assay, the system named is MT4. The experiment in a line: Cytotoxic concentration of compound required to reduce the viability of mock infected MT-4 cells on the MTT assay in test I. The assay is classed as functional. As to conditions: Homo sapiens.
The next assay has as its system PBMC (Homo sapiens). Kind of assay: Cytotoxic concentration of compound determined by the […] exclusion staining method in PBMC by test II.
The nature of assay [1]: Selectivity index determined for CC50 (test I) to EC50 x 10e3. In kind it is functional.

On to `NCCCC[C@@H]1NC(=O)[C@H](CCCN=C(N)N)NC(=O)[C@H](Cc2ccc(O)cc2)NC(=O)[C@@H](NC(=O)[C@@H](NC(=O)[C@H](CCCN=C(N)N)NC(=O)[C@@H](N)CCCN=C(N)N)c2ccc3ccccc3c2)CSSC[C@@H](C(=O)N[C@@H](CCCN=C(N)N)C(=O)O)NC(=O)[C@H](CCCNC(N)=O)NC(=O)[C@H](CCCN=C(N)N)NC(=O)[C@H](Cc2ccc(O)cc2)NC(=O)[C@@H]2CCCN2C(=O)[C@@H](CCCNC(N)=O)NC1=O`, for which the results for the CC50 in the assay on MT4 and with PBMC (Homo sapiens) were over 80 µM and 110 µM, respectively.
Regarding `Nc1ccn([C@H]2CC[C@@H](CO)O2)c(=O)n1` [ZALCITABINE], in the assay with MT4, the CC50 amounted to 14 µM. Besides, the SI in assay [1] was determined as 0.16.
For `NCCCC[C@@H]1NC(=O)[C@H](CCCNC(N)=O)NC(=O)[C@H](Cc2ccc(O)cc2)NC(=O)[C@@H](NC(=O)[C@@H](NC(=O)[C@H](CCCN=C(N)N)NC(=O)[C@@H](N)CCCN=C(N)N)c2ccc3ccccc3c2)CSSC[C@@H](C(=O)N[C@@H](CCCN=C(N)N)C(N)=O)NC(=O)[C@H](CCCNC(N)=O)NC(=O)[C@H](CCCNC(N)=O)NC(=O)[C@H](Cc2ccc(O)cc2)NC(=O)[C@@H]2CCCN2C(=O)[C@@H](CCCCN)NC1=O`, the results for the CC50 in the assay on MT4 and with PBMC (Homo sapiens) were over 100 µM and over 400 µM, respectively.
For `NCCCC[C@@H]1NC(=O)[C@H](CCCNC(N)=O)NC(=O)[C@H](Cc2ccc(O)cc2)NC(=O)[C@@H](NC(=O)[C@@H](NC(=O)[C@H](CCCN=C(N)N)NC(=O)[C@@H](N)CCCN=C(N)N)c2ccc3ccccc3c2)CSSC[C@@H](C(=O)N[C@@H](CCCN=C(N)N)C(=O)O)NC(=O)[C@H](CCCNC(N)=O)NC(=O)[C@H](CCCN=C(N)N)NC(=O)[C@H](Cc2ccc(O)cc2)NC(=O)[C@@H]2CCCN2C(=O)[C@@H](CCCCN)NC1=O`, the CC50 was over 80 µM with MT4 and 510 µM with PBMC (Homo sapiens).
With `NCCCC[C@@H]1NC(=O)[C@@H](CCCCN)NC(=O)[C@H](CCCN=C(N)N)NC(=O)[C@@H](Cc2ccc(O)cc2)NC(=O)[C@H](NC(=O)[C@@H](NC(=O)[C@H](CCCN=C(N)N)NC(=O)[C@@H](N)CCCN=C(N)N)c2ccc3ccccc3c2)CSSC[C@H](C(=O)N[C@@H](CCCN=C(N)N)C(N)=O)NC(=O)[C@H](CCCNC(N)=O)NC(=O)[C@H](CCCN=C(N)N)NC(=O)[C@H](Cc2ccc(O)cc2)NC(=O)[C@H]2CCCN2C1=O`, the SI in assay [1] amounted to 0.14.
Regarding `NCCCC[C@@H]1NC(=O)[C@H](CCCN=C(N)N)NC(=O)[C@H](Cc2ccc(O)cc2)NC(=O)[C@@H](NC(=O)[C@@H](NC(=O)[C@H](CCCN=C(N)N)NC(=O)[C@@H](N)CCCNC(N)=O)c2ccc3ccccc3c2)CSSC[C@@H](C(=O)N[C@@H](CCCN=C(N)N)C(=O)O)NC(=O)[C@H](CCCNC(N)=O)NC(=O)[C@H](CCCN=C(N)N)NC(=O)[C@H](Cc2ccc(O)cc2)NC(=O)[C@@H]2CCCN2C(=O)[C@@H](CCCNC(N)=O)NC1=O`, the CC50 with MT4 is over 100 µM; in the assay on PBMC (Homo sapiens) it was over 800 µM.
For `NCCCC[C@@H]1NC(=O)[C@H](CCCN=C(N)N)NC(=O)[C@H](Cc2ccc(O)cc2)NC(=O)[C@@H](NC(=O)[C@@H](NC(=O)[C@H](CCCN=C(N)N)NC(=O)[C@@H](N)CCCN=C(N)N)c2ccc3ccccc3c2)CSSC[C@@H](C(=O)N[C@@H](CCCN=C(N)N)C(N)=O)NC(=O)[C@H](CCCNC(N)=O)NC(=O)[C@H](CCCNC(N)=O)NC(=O)[C@H](Cc2ccc(O)cc2)NC(=O)[C@@H]2CCCN2C(=O)[C@@H](CCCNC(N)=O)NC1=O` the same measures were over 100 µM and 680 µM.
For the molecule `NCCCC[C@@H]1NC(=O)[C@H](CCCN=C(N)N)NC(=O)[C@H](Cc2ccc(O)cc2)NC(=O)[C@@H](NC(=O)[C@@H](NC(=O)[C@H](CCCN=C(N)N)NC(=O)[C@@H](N)CCCN=C(N)N)c2ccc3ccccc3c2)CSSC[C@@H](C(=O)N[C@@H](CCCN=C(N)N)C(N)=O)NC(=O)[C@H](CCCNC(N)=O)NC(=O)[C@H](CCCN=C(N)N)NC(=O)[C@H](Cc2ccc(O)cc2)NC(=O)[C@@H]2CCCN2C(=O)[C@@H](CCCCN)NC1=O`, the CC50 with MT4 came out at 10 µM.
